{
  "source": "patent US9303045B2",
  "about": "“5-HT3 receptor antagonists” (Takeda Pharmaceutical Company Limited, priority 2013, dated 2016)",
  "system": "PCP-induced cognitive deficits",
  "assay": "Rodent novel object recognition (NOR) assay in phencyclidine-induced cognitive deficits modeling schizophrenia",
  "type": "in vivo, rat",
  "design": "key to time spent exploring novel object (TN) / time spent exploring familiar object (TF): exploration time in seconds",
  "conditions": "PCP-treated rats, 2 h ITI",
  "description": "Rodent Novel Object Recognition (NOR) Assay in Phencyclidine-Induced Cognitive Deficits Modeling Schizophrenia\nThe aim of this study was to investigate the ability of the compounds of the invention to improve subchronic PCP-induced impairment in cognition memory using the NOR task in the rat, a paradigm of relevance to cognition in schizophrenia. Adult male Sprague-Dawley rats (250-350 g; Harlan, USA) were used for the experiments Animal were acclimated to the facility for 7 days prior to experimentation. Seven groups of 14 animals per group were used for the experiment. One group of animals received vehicle (0.9% saline twice daily) and the remaining six groups received PCP (2.5 mg/kg, s.c. twice daily) for 7 days, followed by 5-days drug free. On the test day, the animals were allowed to acclimate to the testing room for 30 min prior to initiation of experiments. Experiments were carried out in a white plexiglass chamber, designated as experimental arena. The arena was placed in a dark experimental room that was illuminated by a halogen lamp, providing a dim light to the arena.\nAnimals were placed in the arena for a 5 minute period to freely explore the test chamber in the absence of objects (habituation). Animals were then returned to their home cage immediately upon completion of habituation for a 120 min period. (1R,3R,5S)-8-Methyl-8-azabicyclo[3.2.1]octan-3-yl 1-(2,2,2-trifluoroethyl)-1H-indole-3-carboxylate (0.1, 1, 10 mg/kg s.c.), or vehicle (veh, saline) was administered 120 min prior to T1 and galantamine (5 mg/kg, i.p.) was administered 30 min prior to T1. Animals were returned to the arena which contained two identical objects (plastic balls) placed at one end of the arena (acquisition, T1), and allowed to explore for a 5 min period. The time spent exploring the two objects was recorded Animals were once again returned to the home cage for a period of 120 min (ITI).\nITI was followed by the retention phase (T2) where one of the objects presented in the first trial was replaced by a novel object and animals were allowed to explore for an additional 5 min period. Again, the time spent exploring the two objects was recorded.\nFor the retention phase, the differences between the time spent exploring the familiar object and the novel object were examined. All sessions were recorded and scored blindly for the time exploring objects. Exploration is defined as touching the object or directing nose towards object at a distance less that 2 cm. A minimal exploration criterion was used such that only animals with exploration time of greater than 5 seconds per object were included.\nComparisons of all treatment groups were conducted using a one-way ANOVA followed by a Bonferroni's post hoc test for multiple comparisons.",
  "key": {"[1]": {"conditions": "0.1 mg/kg s.c. (bracket prints 0.01 mg/kg)"}, "[2]": {"conditions": "1 mg/kg s.c. (bracket prints 0.1 mg/kg)"}},
  "data": [
    {"smiles": "COc1ccc2c3c1O[C@H]1C[C@@H](O)C=C[C@@]31CCN(C)C2", "note": "[Galantamine, galantamine, reference compound]", "values": [
      {"measurement": "discrimination between familiar and novel objects", "setting": "galantamine 5 mg/kg i.p.", "result": "statistically significant discrimination"},
      {"measurement": "time spent exploring familiar object (TF)", "setting": "galantamine 5 mg/kg i.p.", "result": "11.19±1.376"},
      {"measurement": "time spent exploring novel object (TN)", "setting": "galantamine 5 mg/kg i.p.", "result": "22.8±2.2"}
    ]},
    {"smiles": "CN1[C@@H]2CC[C@H]1C[C@@H](OC(=O)c1cn(CC(F)(F)F)c3ccccc13)C2", "values": [
      {"measurement": "time spent exploring familiar object (TF)", "setting": "[1]", "result": "12.5±2.152"},
      {"measurement": "time spent exploring novel object (TN)", "setting": "[1]", "result": "22.9±3.65"},
      {"measurement": "discrimination between familiar and novel objects", "setting": "0.1 mg/kg s.c.", "result": "did not demonstrate a statistically significant discrimination"},
      {"measurement": "time spent exploring familiar object (TF)", "setting": "[2]", "result": "12.7±1.027"},
      {"measurement": "time spent exploring novel object (TN)", "setting": "[2]", "result": "25.3±2.51"},
      {"measurement": "discrimination between familiar and novel objects", "setting": "1 mg/kg s.c.", "result": "demonstrated a statistically significant discrimination"},
      {"measurement": "discrimination between familiar and novel objects", "setting": "10 mg/kg s.c.", "result": "demonstrated a statistically significant discrimination"},
      {"measurement": "time spent exploring familiar object (TF)", "setting": "10 mg/kg s.c.", "result": "9.831±1.53"},
      {"measurement": "time spent exploring novel object (TN)", "setting": "10 mg/kg s.c.", "result": "22.8±2.48"}
    ]}
  ]
}
